Measured values from patent publication US20120252791A1, “Heterocyclic GTP Cyclohydrolase 1 Inhibitors For the Treatment of Pain” (priority 2009, published 2012).
Where two headings read alike, the source gives them in different places.

Target: T1, GCH-1 (Homo sapiens, UniProt P30793)
T1 sequence (P30793 1-250): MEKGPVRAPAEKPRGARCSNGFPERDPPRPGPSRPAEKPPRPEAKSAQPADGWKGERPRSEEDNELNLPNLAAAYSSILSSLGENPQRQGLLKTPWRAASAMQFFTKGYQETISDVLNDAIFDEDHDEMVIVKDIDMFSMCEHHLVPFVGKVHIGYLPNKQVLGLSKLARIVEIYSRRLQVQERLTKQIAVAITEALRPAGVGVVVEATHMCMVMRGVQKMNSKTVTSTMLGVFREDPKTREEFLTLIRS
Assay: LC/MS assay monitoring GTP consumption and neopterin formation by GCH-1
Assay type: biochemical
Settings: 2 μM GCH-1, 120 μM GTP, 1 hour at 37° C.
Procedure: This method is based on transformations known in the art (see, for example, Xie et al., J. Biol. Chem. 273(33):21091-21098, 1998). The LC-MS assay is carried out by the following steps.
(1) GCH-1 reaction • 2 μM GCH-1, 120 μM GTP, 1 hour incubation at 37° C. (2) Termination of GCH-1 reaction by de-phosphorylation • The reaction is stopped by the addition of excess alkaline phosphatase (2 units/sample) • 1 hour incubation at 37° C. (3) Oxidation of 7,8-dihydroneopterin to get a stabile final product • Oxidation with 0.1 M […] for 1 hour at 37° C. resulting in oxidation of 7,8-dihydroneopterin to neopterin • Termination of the oxidation reaction by addition of ascorbic acid
• Sample analysis using highly specific LC/MS methods to detect guanosine and neopterin in parallel • Data analysis and automated CRC fitting to get IC50 values

[1] = Table 8, LC/MS assay, read-out: IC50

| SMILES | IC50 (assay validation with known GCH-1 inhibitors, read-out: IC50 [μM] LC/MS assay) [µM] | IC50 [1] [µM] |
| --- | --- | --- |
| Nc1nc2[nH]c(S)nc2c(=O)[nH]1 [8-mercaptoguanine, reference compound] | 5 |  |
| COCCSc1nc2c(=O)[nH]c(N)nc2[nH]1 [(6)] |  | 25 |
| Nc1nc2[nH]c(SCC3CCOCC3)nc2c(=O)[nH]1 [(9)] |  | 39 |
| Nc1nc2[nH]c(N)nc2c(=O)[nH]1 [(31)] |  | 27 |
| CCOc1ccccc1NC(=O)CSc1nc2c(O)nc(N)nc2[nH]1 [(56)] |  | 40 |
| CCCSc1nc2c(=O)[nH]c(N)nc2[nH]1 [Compound (3)] |  | 14 |
| CCCSc1nc2c(=O)[nH]c(N)nc2n1C [Compound (4)] |  | 85 |
| Cn1c(=S)[nH]c2nc(N)[nH]c(=O)c21 [Compound (13)] |  | 76 |
| COCCn1cnc2c(=O)[nH]c(N)nc21 [Compound (29)] |  | > 400 |
| Nc1nc2[nH]ccc2c(=O)[nH]1 [Compound (37)] |  | 43 |
| Cn1ccc2c(=O)[nH]c(N)nc21 [Compound (38)] |  | 193 |
| Cc1cn(C)c2nc(N)[nH]c(=O)c12 [Compound (40)] |  | > 400 |
